Laboratory results: article PMC3314626, “Crystal Structures of the Tetratricopeptide Repeat Domains of Kinesin Light Chains: Insight into Cargo Recognition Mechanisms” (PLoS ONE, 2012)
Entries after “also recorded” stand apart in the source; their conditions may differ. Like-named read-outs stand apart in the source and are kept apart here.

Assays:
KLC2-TPR = biological target: T1, KLC2-TPR (Homo sapiens, UniProt Q9H0B6); assay: ITC binding of JIP1 peptide to KLC2-TPR; conditions: 25°C
T1 construct: KLC2-TPR (residues 217–480, genbank: NP_073733); made in house; host or cells: E. coli BL21(DE3)-CodonPlus-RIL
Protocol: (§1) DNAs encoding the TPR domains of KLC1-TPR (residues 228–495, genbank: NP_005543) and KLC2-TPR (residues 217–480, genbank: NP_073733) were amplified by polymerase chain reaction (PCR) using cDNAs obtained from the Mammalian Gene Collection as templates. The PCR products were cloned into a modified version of the expression plasmid pET28-LIC (genbank: EF442785) using an Infusion cloning kit (ClonTech). The KLC1-N343S and KLC2-S328N mutants were prepared with a QuickChange® kit (Stratagene).
(§2) Binding affinities of the JIP1 peptide (Ac-EYTCPTEDIYLE-COOH), ALC1peptide (Ac-EMDWDDSALT-COOH) (synthesized by Tufts University Core Facility), and ALC1 protein to the KLC1-TPR, KLC2-TPR and their mutants were measured by isothermal titration calorimetry (ITC) (VP-ITC microcalorimeter, MicroCal Inc.). Measurements were performed at 25°C by injecting 5–10 µl of peptide solution (1–3 mM) into a sample chamber containing 60–130 µM KLC1-TPR or KLC2-TPR in 20 mM Bis-Tris, pH 6.5, 500 mM sodium chloride, and 0.5 mM TCEP. For the protein-protein interaction, the sample chamber contained 15 µM of KLC1-TPR and 160 µM of the ALC1 protein in a buffer containing 30 mM HEPES 7.4, 200 mM NaCl, 0.5 mM TCEP. The syringe injections containing peptides and proteins were dissolved and dialyzed in the same buffer as the KLC proteins prior to the experiments. A total of 25 injections were performed with an interval of 300 seconds and a reference power of 13 µcal/second. The heat of dilution was controlled with binding isotherms from reference injections containing the peptide alone prior to fitting of the data. ITC data were analyzed using Origin software (MicroCal Inc) and were fit using a one-site binding model.

KLC1-N343S = biological target: T2, KLC1-N343S (Homo sapiens, UniProt Q07866, N343S); assay: ITC binding of JIP1 or ALC1 peptide to KLC1-N343S mutant; conditions: 25°C; for ΔS / N (binding stoichiometry) / Kd / ΔH: one-site model, N.B = no binding was observed; for N (binding stoichiometry) / Kd / ΔH: ± SD from fit; for ΔH: peptide 1–3 mM into chamber, 20 mM Bis-Tris pH 6.5, 500 mM NaCl, 0.5 mM TCEP
T2 construct: KLC1-TPR (residues 228–495, genbank: NP_005543); made in house; host or cells: E. coli BL21(DE3)-CodonPlus-RIL
Protocol: as §1, §2

KLC2-S328N = biological target: T3, KLC2-S328N (Homo sapiens, UniProt Q9H0B6, S328N); assay: ITC binding of JIP1 peptide to KLC2-S328N mutant; conditions: 25°C
T3 construct: KLC2-TPR (residues 217–480, genbank: NP_073733); made in house; host or cells: E. coli BL21(DE3)-CodonPlus-RIL
Protocol: as §1, §2

KLC1-TPR [1] = biological target: T4, KLC1-TPR (Homo sapiens, UniProt Q07866); assay: ITC binding of JIP1 or ALC1 peptide to KLC1-TPR; conditions: 25°C; for Kd / ΔH: 20 mM Bis-Tris pH 6.5, 500 mM NaCl, 0.5 mM TCEP; for Kd: Kd determined from Ka of one-site fit, Table 3; for Kd / N (binding stoichiometry) / ΔH: ± SD from fit; for ΔS / N (binding stoichiometry): pH 6.5, 500 mM NaCl; for ΔS / N (binding stoichiometry) / ΔH: one-site model; for ΔH: peptide 1–3 mM injected into 60–130 µM KLC1-TPR
T4 construct: KLC1-TPR (residues 228–495, genbank: NP_005543); made in house; host or cells: E. coli BL21(DE3)-CodonPlus-RIL
Protocol: as §1, §2

KLC1-N301A = biological target: T5, KLC1-N301A (Homo sapiens, UniProt Q07866, N301A); assay: ITC binding of ALC1 peptide to KLC1-N301A mutant; conditions: 25°C
T5 construct: KLC1-TPR (residues 228–495, genbank: NP_005543); made in house; host or cells: E. coli BL21(DE3)-CodonPlus-RIL
Protocol: as §2
Tryptophans at position 903 and 973 of ALC1 are crucial in binding to KLC1 as their mutation to alanines disrupt the interaction. There are two negatively charged aspartic acids and a polar serine residue adjacent to the tryptophans. Due to the similarities of the ALC1 residues to those of JIP1, the recognition of ALC1 by KLC1-TPR could also involve a “clamping” feature. However, such clamp must be different from the JIP1 binding polar patch as N343 is not required for ALC1 binding. Also, residues lining the ALC1 binding clamp should be conserved between KLC1-TPR and KLC2-TPR as ALC1 can interact with both isoforms. Possible candidates are N301 and N344 residues in the inner helices of TPR3 and TPR4 of KLC1-TPR. N301 extends toward the neighboring helix and interacts with N344, and is adjacent to K340 and Q341. As these residues are conserved in KLC2-TPR, N301 of KLC1-TPR was mutated into an alanine (KLC1-N301A) and tested its binding behavior towards ALC1 peptide. […] Together, N301 of KLC1-TPR plays an important role in binding of ALC1, probably by forming one of the ALC1 binding clamps.

KLC1-TPR [2] = biological target: T4, KLC1-TPR; assay: ITC binding of cytosolic domain of ALC1 protein to KLC1-TPR
Protocol: as §1, §2
In order to elucidate a comprehensive view of ALC1 binding to KLC isoforms, the cytosolic domain of ALC1 was purified for the ITC binding studies. […] This would cause the modest increase in binding affinity to KLC1-TPR, compared to the ALC1 peptide. […]

[3] = pH 6.5, 500 mM NaCl, N.B = no binding was observed
[4] = pH 6.5, 500 mM NaCl, one-site model
[5] = pH 6.5, 500 mM NaCl, one-site model, ± SD from fit
[6] = peptide 1–3 mM into chamber, 20 mM Bis-Tris pH 6.5, 500 mM NaCl, 0.5 mM TCEP, one-site model, ± SD from fit

T1 sequence (Q9H0B6 217-480): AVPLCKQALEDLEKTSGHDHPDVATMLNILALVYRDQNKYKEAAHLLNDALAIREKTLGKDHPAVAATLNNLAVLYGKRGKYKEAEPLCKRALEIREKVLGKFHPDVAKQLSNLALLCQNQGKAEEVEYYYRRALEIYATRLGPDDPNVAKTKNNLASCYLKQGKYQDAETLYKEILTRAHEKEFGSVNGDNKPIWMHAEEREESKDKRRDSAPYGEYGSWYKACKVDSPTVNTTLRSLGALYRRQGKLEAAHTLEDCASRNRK
T4 sequence (Q07866 228-495): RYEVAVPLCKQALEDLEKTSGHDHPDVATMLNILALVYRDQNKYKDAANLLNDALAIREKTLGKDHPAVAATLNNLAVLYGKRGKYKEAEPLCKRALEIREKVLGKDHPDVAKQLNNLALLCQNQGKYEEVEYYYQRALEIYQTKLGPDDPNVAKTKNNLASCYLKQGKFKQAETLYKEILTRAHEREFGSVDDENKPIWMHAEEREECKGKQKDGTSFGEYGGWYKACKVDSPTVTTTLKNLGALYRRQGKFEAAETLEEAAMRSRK
T3 sequence (Q9H0B6 217-480 S328N): as the sequence (Q9H0B6 217-480) above, with S112N counted along it
T2 sequence (Q07866 228-495 N343S): as the sequence (Q07866 228-495) above, with N116S counted along it
T5 sequence (Q07866 228-495 N301A): as the sequence (Q07866 228-495) above, with N74A counted along it

Compound: CC[C@H](C)[C@H](NC(=O)[C@H](CC(=O)O)NC(=O)[C@H](CCC(=O)O)NC(=O)[C@@H](NC(=O)[C@@H]1CCCN1C(=O)[C@H](CS)NC(=O)[C@@H](NC(=O)[C@H](Cc1ccc(O)cc1)NC(=O)[C@H](CCC(=O)O)NC(C)=O)[C@@H](C)O)[C@@H](C)O)C(=O)N[C@@H](Cc1ccc(O)cc1)C(=O)N[C@@H](CC(C)C)C(=O)N[C@@H](CCC(=O)O)C(=O)O [JIP1 peptide, Ac-EYTCPTEDIYLE-COOH]
- interaction with KLC2-TPR (in words) (KLC2-TPR; pH 6.5, 500 mM NaCl): no interaction was detected; also recorded: not to KLC2-TPR
- Kd (KLC2-TPR; [3]): N.B
- N (binding stoichiometry) (KLC2-TPR; [3]): N.B
- ΔS (KLC2-TPR; [3]): N.B
- ΔH (KLC2-TPR; peptide 1–3 mM into 60–130 µM KLC2-TPR, 20 mM Bis-Tris pH 6.5, 500 mM NaCl, 0.5 mM TCEP, N.B = no binding was observed): N.B
- ability to bind (in words) (KLC1-N343S; pH 6.5, 500 mM NaCl): lost the ability to bind
- ΔS (KLC1-N343S; pH 6.5, 500 mM NaCl): N.B
- N (binding stoichiometry) (KLC1-N343S; pH 6.5, 500 mM NaCl): N.B
- Kd (KLC1-N343S; pH 6.5, 500 mM NaCl, Table 3): N.B
- ΔH (KLC1-N343S): N.B
- ability to bind (in words) (KLC2-S328N; pH 6.5, 500 mM NaCl): gained binding capacity
- ΔS (KLC2-S328N; [4]): −31.8 eu
- N (binding stoichiometry) (KLC2-S328N; [5]): 1.18±0.01
- ΔH (KLC2-S328N; [6]): -66.5 ± 6.69 kJ/mol
- Kd (KLC1-TPR [1]): 9.4 ± 5.85 µM
- ΔS (KLC1-TPR [1]): 17.9 eu
- N (binding stoichiometry) (KLC1-TPR [1]): 1.02±0.1
- interaction with KLC1-TPR (in words) (KLC1-TPR [1]; pH 6.5, Figure S3A): specifically binds to KLC1-TPR
- ΔH (KLC1-TPR [1]): -6.36 ± 0.761 kJ/mol

Compound: Ac-EMDWDDSALT-OH [ALC1 peptide, Ac-EMDWDDSALT-COOH]
- ΔS (KLC1-N343S; pH 6.5, 500 mM NaCl): 14.1 eu
- N (binding stoichiometry) (KLC1-N343S; pH 6.5, 500 mM NaCl): 2.13
- Kd (KLC1-N343S; pH 6.5, 500 mM NaCl, Table 3, read-out: Kd): 44.3 ± 7.5 µM
- N (binding stoichiometry) (KLC1-N343S; pH 6.5, 500 mM NaCl, listed as ALC1): 2.13±0.15
- ΔH (KLC1-N343S): -7.11 ± 0.669 kJ/mol
- Kd (KLC1-TPR [1]): 50.3 ± 3.1 µM
- ΔS (KLC1-TPR [1]): 11.4 eu
- N (binding stoichiometry) (KLC1-TPR [1]): 1.85
- N (binding stoichiometry) (KLC1-TPR [1]; listed as ALC1): 1.85±0.04
- ΔH (KLC1-TPR [1]): -10.5 ± 0.29 kJ/mol
- affinity compared with wild type KLC1 (in words) (KLC1-N301A; pH 6.5, 500 mM NaCl): lower affinity than the wild type KLC1
- ΔS (KLC1-N301A; [4]): 12.9 eu
- N (binding stoichiometry) (KLC1-N301A; [5]): 1.02
- Kd (KLC1-N301A; pH 6.5, 500 mM NaCl, one-site model, ± SD from fit, Table 3): 179 ± 127 µM
- N (binding stoichiometry) (KLC1-N301A; pH 6.5, 500 mM NaCl, one-site model, ± SD from fit, listed as ALC1): 1.02±0.69
- ΔH (KLC1-N301A; [6]): -5.02 ± 4.14 kJ/mol

Compound: cytosolic domain of ALC1: purified cytosolic domain of ALC1, containing two KLC1-binding motifs (residues 893–896 and 964–967)
- Kd (KLC1-TPR [2]; 25°C, 15 µM KLC1-TPR, 160 µM ALC1 protein, 30 mM HEPES 7.4, 200 mM NaCl, 0.5 mM TCEP, one-site model): 2.4 µM
- binding stoichiometry (KLC1-TPR [2]; 25°C, 30 mM HEPES 7.4, 200 mM NaCl, 0.5 mM TCEP, one-site model): 0.85
- affinity compared with the ALC1 peptide (in words) (KLC1-TPR [2]; KLC1-TPR): higher affinity than the ALC1 peptide
